# Data as given in article PMC9104902, “Spiro-Oxindole Skeleton Compounds Are Efficient Inhibitors for Indoleamine 2,3-Dioxygenase 1: An Attractive Target for Tumor Immunotherapy” (International Journal of Molecular Sciences, 2022).
# Entries after “also recorded” stand apart in the source; their conditions may differ.
# Molecular target: IDO1 expressed in CT26 cells (Mus musculus, UniProt P28776)
# Test: IDO1 inhibitory assay in cell lines (kynurenine, IFN-γ induced), CT26
# Type: cell-based
# Details: 100 μM inhibitor concentration
# Protocol: (§1) IDO1 cellular activity assay was carried out by standard literature protocols. […] First of all, cells grew in high glucose DMEM medium containing 10% FBS and antibiotics. […] Then, 1 × 10^4 cells were seeded in 96-well plates and cultivated in carbon dioxide incubator at 37 °C containing 5% CO2 for 24 h. On day two, each well in the plates were treated with fresh DMEM medium, which contained L-Trp (20 μg/mL), IFN-γ (10 ng/mL), and different concentrations of inhibitor. The plate was incubated for 48 h further. Then, 140 μL of supernatant from each well was transferred into centrifuge tubes correlatively. An amount of 10 μL of 30% trichloroacetic acid (w/v) was added to each tube aimed to precipitate proteins. Subsequently, sample incubation (65 °C, 30 min) was required to make the N′-formylkynurenine (NFK) change into kynurenine which was the final product. Soon afterwards, the sample was centrifuged at 8000 rpm for 10 min. An amount of 100 μL supernatant from each tube was transferred into a new 96-well plate with an equal amount of 2% pDMAB added. The concentration of kynurenine could be measured because it reacts with pDMAB to form a product with a UV–vis absorption at 492 nm. To estimate cell viability, 1 × 10^4 normal cells named L02 were seeded in 96-well flat bottom plates with a final volume of 200 μL of DMEM complete growth medium. After being incubated for 24 h at 37 °C, the culture was replaced by a fresh complete growth medium (200 μL) and four inhibitors (200 μM) were added individually. Then, 48 h later, the medium was replaced by PBS (180 μL) mixed with CCK8 solution (20 μL) in each well. Cell viability was evaluated by testing the OD450nm. Finally, all data in cell experiments were processed by GraphPad Prism 7.00 to obtain the IDO1 inhibitory percentage of each inhibitor in the cells and the cell viability.
# Chain of IDO1 expressed in CT26 cells (P28776 whole entry): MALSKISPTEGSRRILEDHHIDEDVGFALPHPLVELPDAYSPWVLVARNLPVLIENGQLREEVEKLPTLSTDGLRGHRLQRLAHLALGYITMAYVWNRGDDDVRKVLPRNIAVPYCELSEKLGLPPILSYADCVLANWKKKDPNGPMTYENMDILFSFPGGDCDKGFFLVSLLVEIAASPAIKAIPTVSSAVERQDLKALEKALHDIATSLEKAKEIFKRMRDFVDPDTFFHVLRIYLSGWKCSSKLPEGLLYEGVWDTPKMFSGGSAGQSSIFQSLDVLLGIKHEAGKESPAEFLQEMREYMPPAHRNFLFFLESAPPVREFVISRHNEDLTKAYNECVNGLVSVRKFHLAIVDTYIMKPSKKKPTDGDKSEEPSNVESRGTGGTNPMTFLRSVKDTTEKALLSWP
row,Compound,inhibition at 100 µM [%]
1,COC(=O)[C@H]1N[C@@H](c2ccccc2)[C@@]2(C(=O)Nc3ccccc32)[C@@H]1c1ccccc1 [inhibitor 1],3.7 ± 0.8
2,COC(=O)[C@H]1N[C@@H](c2ccccc2)[C@@]2(C(=O)Nc3cc(C)ccc32)[C@@H]1c1ccccc1 [inhibitor 2],4.2 ± 0.5
3,COC(=O)[C@H]1N[C@@H](c2ccccc2)[C@@]2(C(=O)Nc3cc(OC)ccc32)[C@@H]1c1ccccc1 [inhibitor 3],6.4 ± 0.8
4,COC(=O)[C@@H]1N[C@H](c2ccc(Br)cc2)[C@]2(C(=O)Nc3ccccc32)[C@H]1c1ccccc1 [inhibitor 4],1.7 ± 0.5

# Molecular target: IDO1 expressed in HeLa cells (Homo sapiens, UniProt P14902)
# Test: IDO1 inhibitory assay in cell lines (kynurenine, IFN-γ induced), HeLa
# Type: cell-based
# Details: 100 μM inhibitor concentration
# Protocol: as §1
# Chain of IDO1 expressed in HeLa cells (P14902 whole entry): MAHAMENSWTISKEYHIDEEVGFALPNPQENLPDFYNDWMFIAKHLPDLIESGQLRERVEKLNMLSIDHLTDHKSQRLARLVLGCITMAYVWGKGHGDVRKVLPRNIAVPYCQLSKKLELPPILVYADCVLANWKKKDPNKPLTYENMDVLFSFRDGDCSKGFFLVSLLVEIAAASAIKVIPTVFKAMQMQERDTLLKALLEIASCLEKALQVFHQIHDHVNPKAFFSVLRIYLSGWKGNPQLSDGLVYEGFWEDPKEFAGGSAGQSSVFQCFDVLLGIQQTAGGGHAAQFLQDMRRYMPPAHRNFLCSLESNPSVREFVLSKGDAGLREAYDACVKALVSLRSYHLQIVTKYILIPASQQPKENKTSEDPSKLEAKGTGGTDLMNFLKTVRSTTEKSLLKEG
row,Compound,inhibition at 100 µM [%]
1,COC(=O)[C@H]1N[C@@H](c2ccccc2)[C@@]2(C(=O)Nc3ccccc32)[C@@H]1c1ccccc1 [inhibitor 1],25.5 ± 1.5
2,COC(=O)[C@H]1N[C@@H](c2ccccc2)[C@@]2(C(=O)Nc3cc(C)ccc32)[C@@H]1c1ccccc1 [inhibitor 2],27.1 ± 2.1
3,COC(=O)[C@H]1N[C@@H](c2ccccc2)[C@@]2(C(=O)Nc3cc(OC)ccc32)[C@@H]1c1ccccc1 [inhibitor 3],26.7 ± 0.7
4,COC(=O)[C@@H]1N[C@H](c2ccc(Br)cc2)[C@]2(C(=O)Nc3ccccc32)[C@H]1c1ccccc1 [inhibitor 4],25.6 ± 1.3

# Molecular target: T1, IDO1 (Homo sapiens, UniProt P14902)
# Test: Enzyme-based IDO1 inhibitory assay (UV–vis, product at 320 nm)
# Type: biochemical
# Details: 100 μM L-Trp; mean ± SD, three determinations
# Protocol: The IDO1 inhibitory assay was performed according to standard literature protocols with some modifications. The UV–vis method was used for evaluating the inhibitory activity of inhibitors against IDO1. Specifically, IDO1 (1 μM, 1 mL) was prepared by phosphate buffer (100 mM, pH 6.5) containing catalase (200 μg/mL), methylene blue (10 μM), and ascorbic acid (10 mM, pH 6.5). Concentrations of every inhibitor were varied from 1 to 200 μM, and experimental samples were incubated at 37 °C for 10 min. Then, a certain concentration of L-Trp was added before monitoring the product at 320 nm by UV–vis spectrophotometer immediately.
# The inhibition percent of each inhibitor was determined by [1 − (A/B)] × 100%, where A is the enzymatic activity of IDO1 with inhibitor added and B is the absence of the inhibitor. […] The plot was described by the percent inhibition against Log10 concentration of the inhibitor.
# Ki values of inhibitors were obtained by intersection of the three fitted lines in the plot, which was the absolute value of the X-axis value of the intersection. The plot was described by [S]/[V] against inhibitor concentration, where [S] and [V] were the substrate concentration and the reaction velocity, respectively. Furthermore, protein-inhibitor binding modes were determined by the position of the intersections in the plot. Data processing was performed by Origin 7.5.
# T1 sequence (P14902 whole entry): as above
row,Compound,IC50 [µM]
1,COC(=O)[C@H]1N[C@@H](c2ccccc2)[C@@]2(C(=O)Nc3ccccc32)[C@@H]1c1ccccc1 [inhibitor 1],25.2 ± 3.6
2,COC(=O)[C@H]1N[C@@H](c2ccccc2)[C@@]2(C(=O)Nc3cc(C)ccc32)[C@@H]1c1ccccc1 [inhibitor 2],29.4 ± 1.3
3,COC(=O)[C@H]1N[C@@H](c2ccccc2)[C@@]2(C(=O)Nc3cc(OC)ccc32)[C@@H]1c1ccccc1 [inhibitor 3],7.9 ± 1.7
4,COC(=O)[C@@H]1N[C@H](c2ccc(Br)cc2)[C@]2(C(=O)Nc3ccccc32)[C@H]1c1ccccc1 [inhibitor 4],64.6 ± 3.9

# Same assay, conditions: IC50, methoxyl group at 6-position versus inhibitors 1 and 2
row,Compound,increase of inhibitory activity by substituent modification [times]
1,COC(=O)[C@H]1N[C@@H](c2ccccc2)[C@@]2(C(=O)Nc3cc(OC)ccc32)[C@@H]1c1ccccc1 [inhibitor 3],3

# Same assay, conditions: IC50 ratio versus 4−PI
row,Compound,IDO1 inhibitory activity (IC50) relative to positive control 4−PI
1,COC(=O)[C@H]1N[C@@H](c2ccccc2)[C@@]2(C(=O)Nc3cc(OC)ccc32)[C@@H]1c1ccccc1 [inhibitor 3],~six-fold; also recorded: ~six times

# Same assay, conditions: L-Trp 50, 100, 150 μM; [S]/[V] against [I] plot (Cornish-Bowden)
row,Compound,Ki [µM]
1,COC(=O)[C@H]1N[C@@H](c2ccccc2)[C@@]2(C(=O)Nc3ccccc32)[C@@H]1c1ccccc1 [inhibitor 1],42.3 ± 0.8
2,COC(=O)[C@H]1N[C@@H](c2ccccc2)[C@@]2(C(=O)Nc3cc(C)ccc32)[C@@H]1c1ccccc1 [inhibitor 2],49.5 ± 6
3,COC(=O)[C@H]1N[C@@H](c2ccccc2)[C@@]2(C(=O)Nc3cc(OC)ccc32)[C@@H]1c1ccccc1 [inhibitor 3],63.6 ± 3.5
4,COC(=O)[C@@H]1N[C@H](c2ccc(Br)cc2)[C@]2(C(=O)Nc3ccccc32)[C@H]1c1ccccc1 [inhibitor 4],101 ± 4.4

# Same assay, conditions: position of intersections in [S]/[V] against [I] plot
row,Compound,Type of Inhibition
1,COC(=O)[C@H]1N[C@@H](c2ccccc2)[C@@]2(C(=O)Nc3ccccc32)[C@@H]1c1ccccc1 [inhibitor 1],Uncompetitive
2,COC(=O)[C@H]1N[C@@H](c2ccccc2)[C@@]2(C(=O)Nc3cc(C)ccc32)[C@@H]1c1ccccc1 [inhibitor 2],Uncompetitive
3,COC(=O)[C@H]1N[C@@H](c2ccccc2)[C@@]2(C(=O)Nc3cc(OC)ccc32)[C@@H]1c1ccccc1 [inhibitor 3],Uncompetitive
4,COC(=O)[C@@H]1N[C@H](c2ccc(Br)cc2)[C@]2(C(=O)Nc3ccccc32)[C@H]1c1ccccc1 [inhibitor 4],Uncompetitive

# Molecular target: T1, IDO1
# Test: Determination of the inhibition types (reversible or irreversible; [V] versus [E] plot)
# Type: biochemical
# Details: 100 μM inhibitor, 100 μM L-Trp
# Protocol: Based on the results of UV–vis spectra, the determination of inhibitory types was carried out according to the reference. The inhibitor was defined as reversible if the fitted lines were intersected in the plot (Figure 4A).
# Different concentrations of IDO1 (1 mL) were prepared with 100 mM phosphate buffer (pH 6.5) containing methylene blue (10 μM), catalase (200 μg/mL), and ascorbic acid (10 mM, pH 6.5). Each sample was incubated at 37 °C for 10 min. An amount of 100 μM L-Trp was added before measuring by UV–vis spectrophotometer at 320 nm. The only difference for the other set of groups was 100 μM inhibitor was added in each sample before incubating. The data were analyzed by Origin 7.5, and plot of reaction rate [V] versus enzyme amount [E] was proposed using linear fit. The determination of inhibitory types was based on the linear trend of the fitted plot.
row,Compound,Inhibition type (reversible or irreversible)
1,COC(=O)[C@H]1N[C@@H](c2ccccc2)[C@@]2(C(=O)Nc3cc(OC)ccc32)[C@@H]1c1ccccc1 [inhibitor 3],reversible

# Molecular target: T2, IDO1 expressed in MCF-7 cells (Homo sapiens, UniProt P14902)
# T2 construct: endogenous in cells; host or cells: MCF-7 (IFN-γ induced)
# Test: IDO1 inhibitory assay in cell lines (kynurenine, IFN-γ induced), MCF-7
# Type: cell-based
# Details: MCF7; 100 μM inhibitor concentration
# Protocol: as §1
# T2 sequence (P14902 whole entry): as above
row,Compound,inhibition at 100 µM [%]
1,COC(=O)[C@H]1N[C@@H](c2ccccc2)[C@@]2(C(=O)Nc3ccccc32)[C@@H]1c1ccccc1 [inhibitor 1],23.7 ± 2
2,COC(=O)[C@H]1N[C@@H](c2ccccc2)[C@@]2(C(=O)Nc3cc(C)ccc32)[C@@H]1c1ccccc1 [inhibitor 2],22.4 ± 0.4
3,COC(=O)[C@H]1N[C@@H](c2ccccc2)[C@@]2(C(=O)Nc3cc(OC)ccc32)[C@@H]1c1ccccc1 [inhibitor 3],27.8 ± 0.3
4,COC(=O)[C@@H]1N[C@H](c2ccc(Br)cc2)[C@]2(C(=O)Nc3ccccc32)[C@H]1c1ccccc1 [inhibitor 4],20.7 ± 0.1

# Molecular target: T3, IDO1 expressed in 4T1 cells (Mus musculus, UniProt P28776)
# T3 construct: endogenous in cells; host or cells: 4T1 (IFN-γ induced)
# Test: IDO1 inhibitory assay in cell lines (kynurenine, IFN-γ induced), 4T1
# Type: cell-based
# Details: 100 μM inhibitor concentration
# Protocol: as §1
# T3 sequence (P28776 whole entry): as the sequence (P28776 whole entry) above
row,Compound,inhibition at 100 µM [%]
1,COC(=O)[C@H]1N[C@@H](c2ccccc2)[C@@]2(C(=O)Nc3ccccc32)[C@@H]1c1ccccc1 [inhibitor 1],2.6 ± 0.6
2,COC(=O)[C@H]1N[C@@H](c2ccccc2)[C@@]2(C(=O)Nc3cc(C)ccc32)[C@@H]1c1ccccc1 [inhibitor 2],4.2 ± 1
3,COC(=O)[C@H]1N[C@@H](c2ccccc2)[C@@]2(C(=O)Nc3cc(OC)ccc32)[C@@H]1c1ccccc1 [inhibitor 3],4.3 ± 0.1
4,COC(=O)[C@@H]1N[C@H](c2ccc(Br)cc2)[C@]2(C(=O)Nc3ccccc32)[C@H]1c1ccccc1 [inhibitor 4],2.8 ± 0.3
